Measured values reported in ChEMBL document CHEMBL1909294, “Translating clinical findings into knowledge in drug safety evaluation--drug induced liver injury prediction system (DILIps)” (PLoS Comput Biol, 2011).

Legend:
Hepatotoxicity [1] = tested on: Hepatotoxicity;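 on HepSE cholecystitis: Cholecystitis-related hepatic side effect score drawn from the DILIps (drug-induced liver injury prediction) training data set; call rule not given here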;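 on HepSE cholelithiasis: hepatic side effect score for cholelithiasis, drawn from the DILIps training data for predicting drug-induced liver injury; call rule not given here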;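 on HepSE cirrhosis: cirrhosis hepatic side effect score taken from the DILIps (drug-induced liver injury prediction) training set; call rule not given here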; on HepSE hepatic failure: call rule not given here;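 on HepSE hepatitis: Hepatitis-related hepatic side effect score taken from the training data of DILIps, a prediction system for drug-induced liver injury; call rule not given here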;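 on HepSE hepatomegaly: hepatic side effect score for hepatomegaly, taken from the training set of the DILIps drug-induced liver injury prediction system; call rule not given here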;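 on HepSE jaundice: Jaundice-related hepatic side-effect score drawn from the training data of the DILIps (drug-induced liver injury prediction system); call rule not given here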
Hepatotoxicity [2] = tested on: Hepatotoxicity; remark: listed apart in the source;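 on HepSE cholecystitis: Cholecystitis-related hepatic side effect score drawn from the DILIps (drug-induced liver injury prediction) training data set; call rule not given here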;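 on HepSE cholelithiasis: hepatic side effect score for cholelithiasis, drawn from the DILIps training data for predicting drug-induced liver injury; call rule not given here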;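 on HepSE cirrhosis: cirrhosis hepatic side effect score taken from the DILIps (drug-induced liver injury prediction) training set; call rule not given here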; on HepSE hepatic failure: call rule not given here;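 on HepSE hepatitis: Hepatitis-related hepatic side effect score taken from the training data of DILIps, a prediction system for drug-induced liver injury; call rule not given here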;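 on HepSE hepatomegaly: hepatic side effect score for hepatomegaly, taken from the training set of the DILIps drug-induced liver injury prediction system; call rule not given here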;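 on HepSE jaundice: Jaundice-related hepatic side-effect score drawn from the training data of the DILIps (drug-induced liver injury prediction system); call rule not given here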
Hepatotoxicity [3] = tested on: Hepatotoxicity; remark: listed apart in the source;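 on HepSE cholecystitis: Cholecystitis-related hepatic side effect score drawn from the DILIps (drug-induced liver injury prediction) training data set; call rule not given here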;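 on HepSE cholelithiasis: hepatic side effect score for cholelithiasis, drawn from the DILIps training data for predicting drug-induced liver injury; call rule not given here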;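 on HepSE cirrhosis: cirrhosis hepatic side effect score taken from the DILIps (drug-induced liver injury prediction) training set; call rule not given here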; on HepSE hepatic failure: call rule not given here;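 on HepSE hepatitis: Hepatitis-related hepatic side effect score taken from the training data of DILIps, a prediction system for drug-induced liver injury; call rule not given here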;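 on HepSE hepatomegaly: hepatic side effect score for hepatomegaly, taken from the training set of the DILIps drug-induced liver injury prediction system; call rule not given here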
Hepatotoxicity [4] = tested on: Hepatotoxicity; remark: listed apart in the source;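 on HepSE cholecystitis: Cholecystitis-related hepatic side effect score drawn from the DILIps (drug-induced liver injury prediction) training data set; call rule not given here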;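 on HepSE cholelithiasis: hepatic side effect score for cholelithiasis, drawn from the DILIps training data for predicting drug-induced liver injury; call rule not given here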;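 on HepSE cirrhosis: cirrhosis hepatic side effect score taken from the DILIps (drug-induced liver injury prediction) training set; call rule not given here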; on HepSE hepatic failure: call rule not given here;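 on HepSE hepatitis: Hepatitis-related hepatic side effect score taken from the training data of DILIps, a prediction system for drug-induced liver injury; call rule not given here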;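 on HepSE hepatomegaly: hepatic side effect score for hepatomegaly, taken from the training set of the DILIps drug-induced liver injury prediction system; call rule not given here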
Hepatotoxicity [5] = tested on: Hepatotoxicity; remark: listed apart in the source; on HepSE hepatic failure: call rule not given here
Hepatotoxicity [6] = tested on: Hepatotoxicity; remark: listed apart in the source; on HepSE hepatic failure: call rule not given here
Hepatotoxicity [7] = tested on: Hepatotoxicity; remark: listed apart in the source
Hepatotoxicity [8] = tested on: Hepatotoxicity; remark: listed apart in the source
Hepatotoxicity [9] = tested on: Hepatotoxicity; remark: listed apart in the source
Hepatotoxicity [10] = tested on: Hepatotoxicity; remark: listed apart in the source
Hepatotoxicity [11] = tested on: Hepatotoxicity; remark: listed apart in the source
Hepatotoxicity [12] = tested on: Hepatotoxicity; remark: listed apart in the source
Hepatotoxicity [13] = tested on: Hepatotoxicity; remark: listed apart in the source
Hepatotoxicity [14] = tested on: Hepatotoxicity; remark: listed apart in the source

| Molecule | HepSE_cholecystitis (Hepatotoxicity [1]) | HepSE_hepatic failure (Hepatotoxicity [2]) | HepSE_cholelithiasis (Hepatotoxicity [3]) | HepSE_hepatomegaly (Hepatotoxicity [4]) | HepSE_cirrhosis (Hepatotoxicity [5]) | HepSE_hepatitis (Hepatotoxicity [6]) | HepSE_jaundice (Hepatotoxicity [7]) | HepSE_Combined Scores (Hepatotoxicity [8]) | HepSE_bilirubinemia (Hepatotoxicity [9]) | HepSE_liver fatty (Hepatotoxicity [10]) | HepSE_hepatic necrosis (Hepatotoxicity [11]) | HepSE_elevated liver function tests (Hepatotoxicity [12]) | HepSE_liver disease (Hepatotoxicity [13]) | HepSE_liver function tests abnormal (Hepatotoxicity [14]) | further results |
| --- | --- | --- | --- | --- | --- | --- | --- | --- | --- | --- | --- | --- | --- | --- | --- |
| COc1cc(NC(C)CCCN)c2ncccc2c1 (configuration not stated) [PRIMAQUINE] | 0 | 0 | 0 | 0 | 0 | 0 | 0 | 0 | 0 | 0 | 0 | 0 | 0 | 0 |  |
| O=C1CN=C(c2ccccc2)c2cc([N+](=O)[O-])ccc2N1 [NITRAZEPAM] | 0 | 0 | 0 | 0 | 0 | 0 | 0 | 0 | 0 | 0 | 0 | 0 | 0 | 0 |  |
| CC(C)Nc1cccnc1N1CCN(C(=O)c2cc3cc(NS(C)(=O)=O)ccc3[nH]2)CC1 [DELAVIRDINE] | 0 | 1 | 0 | 1 | 0 | 1 | 1 | 5 | 1 | 0 | 0 | 0 | 0 | 0 |  |
| COCC(=O)Nc1c(I)c(C(=O)NCC(O)CO)c(I)c(C(=O)N(C)CC(O)CO)c1I (configuration not stated) [IOPROMIDE] | 0 | 0 | 0 | 0 | 0 | 0 | 0 | 0 | 0 | 0 | 0 | 0 | 0 | 0 |  |
| AURANOFIN | 0 | 0 | 0 | 0 | 0 | 0 | 1 | 1 | 0 | 0 | 0 | 0 | 0 | 0 |  |
| O=[N+]([O-])O[C@H]1CO[C@H]2[C@@H]1OC[C@H]2O[N+](=O)[O-] [ISOSORBIDE DINITRATE] | 0 | 0 | 0 | 0 | 0 | 0 | 0 | 0 | 0 | 0 | 0 | 0 | 0 | 0 |  |
| COc1ccc2c3c1O[C@H]1C[C@@H](O)C=C[C@@]31CCN(C)C2 [GALANTAMINE] | 0 | 0 | 0 | 0 | 0 | 1 | 0 | 1 | 0 | 0 | 0 | 0 | 0 | 0 |  |
| CCCCNc1cc(C(=O)O)cc(S(N)(=O)=O)c1Oc1ccccc1 [BUMETANIDE] | 0 | 0 | 0 | 0 | 0 | 0 | 0 | 1 | 0 | 0 | 0 | 0 | 1 | 0 |  |
| CCCCCNC(=N)N/N=C/c1c[nH]c2ccc(OC)cc12 [TEGASEROD] | 1 | 0 | 1 | 0 | 0 | 1 | 0 | 4 | 1 | 0 | 0 | 0 | 0 | 0 |  |
| CC(C)NCC(O)c1ccc(O)c(O)c1 (configuration not stated) [ISOPROTERENOL] |  |  |  |  |  |  |  |  |  |  |  |  |  |  | HepSE_cholecystitis (Hepatotoxicity [1]; Liver): 0; HepSE_hepatic failure (Hepatotoxicity [2]; Liver): 0; HepSE_cholelithiasis (Hepatotoxicity [3]; Liver): 0; HepSE_hepatomegaly (Hepatotoxicity [4]; Liver): 0; HepSE_cirrhosis (Hepatotoxicity [5]; Liver): 0; HepSE_hepatitis (Hepatotoxicity [6]; Liver): 0; HepSE_jaundice (Hepatotoxicity [7]; Liver): 0; HepSE_Combined Scores (Hepatotoxicity [8]; Liver): 0; HepSE_bilirubinemia (Hepatotoxicity [9]; Liver): 0; HepSE_liver fatty (Hepatotoxicity [10]; Liver): 0; HepSE_hepatic necrosis (Hepatotoxicity [11]; Liver): 0; HepSE_elevated liver function tests (Hepatotoxicity [12]; Liver): 0; HepSE_liver disease (Hepatotoxicity [13]; Liver): 0; HepSE_liver function tests abnormal (Hepatotoxicity [14]; Liver): 0 |
| C[C@]12CCC(=O)C=C1CC[C@@H]1[C@@H]2CC[C@@]2(C)[C@H]1CC[C@]2(C)O [METHYLTESTOSTERONE] | 0 | 0 | 0 | 0 | 0 | 0 | 1 | 1 | 0 | 0 | 0 | 0 | 0 | 0 |  |
| CCCCCCCCCCC[C@@H](C[C@@H]1OC(=O)[C@H]1CCCCCC)OC(=O)[C@H](CC(C)C)NC=O [ORLISTAT] | 0 | 0 | 0 | 0 | 0 | 1 | 0 | 1 | 0 | 0 | 0 | 0 | 0 | 0 |  |
| Cc1ccc(-c2cc(C(F)(F)F)nn2-c2ccc(S(N)(=O)=O)cc2)cc1 [CELECOXIB] |  |  |  |  |  |  |  |  |  |  |  |  |  |  | HepSE_cholecystitis (Hepatotoxicity [1]; Liver): 0; HepSE_hepatic failure (Hepatotoxicity [2]; Liver): 1; HepSE_cholelithiasis (Hepatotoxicity [3]; Liver): 1; HepSE_hepatomegaly (Hepatotoxicity [4]; Liver): 0; HepSE_cirrhosis (Hepatotoxicity [5]; Liver): 0; HepSE_hepatitis (Hepatotoxicity [6]; Liver): 1; HepSE_jaundice (Hepatotoxicity [7]; Liver): 1; HepSE_Combined Scores (Hepatotoxicity [8]; Liver): 5; HepSE_bilirubinemia (Hepatotoxicity [9]; Liver): 0; HepSE_liver fatty (Hepatotoxicity [10]; Liver): 0; HepSE_hepatic necrosis (Hepatotoxicity [11]; Liver): 0; HepSE_elevated liver function tests (Hepatotoxicity [12]; Liver): 0; HepSE_liver disease (Hepatotoxicity [13]; Liver): 0; HepSE_liver function tests abnormal (Hepatotoxicity [14]; Liver): 1 |
| CC(=O)N1CCN(c2ccc(OCC3COC(Cn4ccnc4)(c4ccc(Cl)cc4Cl)O3)cc2)CC1 (configuration not stated) [KETOCONAZOLE] | 0 | 0 | 0 | 0 | 0 | 0 | 0 | 0 | 0 | 0 | 0 | 0 | 0 | 0 |  |
| CCc1cccc2c3c([nH]c12)C(CC)(CC(=O)O)OCC3 (configuration not stated) [ETODOLAC] | 0 | 1 | 0 | 0 | 0 | 1 | 1 | 4 | 0 | 0 | 1 | 0 | 0 | 0 |  |
| CCOC(=O)O[C@]1(C(=O)COC(=O)CC)CC[C@H]2[C@@H]3CCC4=CC(=O)C=C[C@]4(C)[C@H]3[C@@H](O)C[C@@]21C [PREDNICARBATE] | 0 | 0 | 0 | 0 | 0 | 0 | 0 | 0 | 0 | 0 | 0 | 0 | 0 | 0 |  |
| CCOC(=O)C1=C(C)NC(C)=C(C(=O)OC)C1c1cccc(Cl)c1Cl (configuration not stated) [FELODIPINE] | 0 | 0 | 0 | 0 | 0 | 1 | 0 | 1 | 0 | 0 | 0 | 0 | 0 | 0 |  |
| Clc1ccccc1CN1CCc2sccc2C1 [TICLOPIDINE] |  |  |  |  |  |  |  |  |  |  |  |  |  |  | HepSE_cholecystitis (Hepatotoxicity [1]; Liver): 0; HepSE_hepatic failure (Hepatotoxicity [2]; Liver): 1; HepSE_cholelithiasis (Hepatotoxicity [3]; Liver): 0; HepSE_hepatomegaly (Hepatotoxicity [4]; Liver): 0; HepSE_cirrhosis (Hepatotoxicity [5]; Liver): 0; HepSE_hepatitis (Hepatotoxicity [6]; Liver): 1; HepSE_jaundice (Hepatotoxicity [7]; Liver): 1; HepSE_Combined Scores (Hepatotoxicity [8]; Liver): 4; HepSE_bilirubinemia (Hepatotoxicity [9]; Liver): 0; HepSE_liver fatty (Hepatotoxicity [10]; Liver): 0; HepSE_hepatic necrosis (Hepatotoxicity [11]; Liver): 1; HepSE_elevated liver function tests (Hepatotoxicity [12]; Liver): 0; HepSE_liver disease (Hepatotoxicity [13]; Liver): 0; HepSE_liver function tests abnormal (Hepatotoxicity [14]; Liver): 0 |
